In the kinase profiling compilation of Christmann-Franck et al. (2016):

What was measured:
Test in all cases: Caliper, Mobility shift assay off-chip
[1] = target: IKBKE (human) (UniProt Q14164)
[2] = target: PRKD1 (human) (UniProt Q15139)
[3] = target: MAPKAPK5 (human) (UniProt Q8IW41)
[4] = target: PRKACG (human) (UniProt P22612)
[5] = target: STK3 (human) (UniProt Q13188)
[6] = target: EPHB1 (human) (UniProt P54762)
[7] = target: GSK3A (human) (UniProt P49840)
[8] = target: ALK (human) (UniProt Q9UM73)
[9] = target: SRMS (human) (UniProt Q9H3Y6)
[10] = target: PAK7 (human) (UniProt Q9P286)
[11] = target: SGK3 (human) (UniProt Q96BR1)
[12] = target: MST1R (human) (UniProt Q04912)
[13] = target: MERTK (human) (UniProt Q12866)
[14] = target: MAPKAPK2 (human) (UniProt P49137)
[15] = target: MARK1 (human) (UniProt Q9P0L2)
[16] = target: PAK1 (human) (UniProt Q13153)
[17] = target: PTK2 (human) (UniProt Q05397)
[18] = target: AKT3 (human) (UniProt Q9Y243)
[19] = target: PTK6 (human) (UniProt Q13882)
[20] = target: AKT1 (human) (UniProt P31749)
[21] = target: MAPK7 (human) (UniProt Q13164)
[22] = target: PRKCE (human) (UniProt Q02156)
[23] = target: CIT (human) (UniProt O14578)
[24] = target: TAB1 (human) (UniProt Q15750)
[25] = target: MAPK12 (human) (UniProt P53778)
[26] = target: EPHA8 (human) (UniProt P29322)
[27] = target: CSF1R (human) (UniProt P07333)
[28] = target: PRKCA (human) (UniProt P17252)
[29] = target: RPS6KA6 KD1 KD2 (human) (UniProt Q9UK32)
[30] = target: HCK (human) (UniProt P08631)
[31] = target: PRKAA1 (human) (UniProt Q13131)
[32] = target: PIM3 (human) (UniProt Q86V86)
[33] = target: CHEK2 (human) (UniProt O96017)
[34] = target: RET (human) (UniProt P07949)

Chain of PRKCE (human) (Q02156 whole entry, looked up): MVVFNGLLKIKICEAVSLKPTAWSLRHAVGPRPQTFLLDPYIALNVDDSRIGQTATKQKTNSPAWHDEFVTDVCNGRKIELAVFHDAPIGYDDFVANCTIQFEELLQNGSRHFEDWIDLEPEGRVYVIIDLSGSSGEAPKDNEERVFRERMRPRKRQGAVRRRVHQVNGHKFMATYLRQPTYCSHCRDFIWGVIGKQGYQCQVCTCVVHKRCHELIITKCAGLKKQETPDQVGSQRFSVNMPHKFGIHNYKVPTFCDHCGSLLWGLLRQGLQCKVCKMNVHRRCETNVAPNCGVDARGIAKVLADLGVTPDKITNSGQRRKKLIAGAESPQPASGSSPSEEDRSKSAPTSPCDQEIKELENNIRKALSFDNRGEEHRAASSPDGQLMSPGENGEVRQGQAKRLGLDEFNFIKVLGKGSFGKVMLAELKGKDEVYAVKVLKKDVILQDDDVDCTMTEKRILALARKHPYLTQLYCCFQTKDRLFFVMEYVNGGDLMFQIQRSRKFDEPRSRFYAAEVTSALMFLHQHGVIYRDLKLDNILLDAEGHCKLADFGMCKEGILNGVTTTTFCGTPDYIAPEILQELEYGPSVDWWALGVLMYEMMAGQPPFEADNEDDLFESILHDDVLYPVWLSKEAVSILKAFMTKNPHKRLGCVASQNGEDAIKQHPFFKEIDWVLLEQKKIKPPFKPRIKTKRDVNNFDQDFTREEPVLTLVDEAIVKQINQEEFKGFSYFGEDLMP
Chain of PRKAA1 (human) (Q13131 whole entry, looked up): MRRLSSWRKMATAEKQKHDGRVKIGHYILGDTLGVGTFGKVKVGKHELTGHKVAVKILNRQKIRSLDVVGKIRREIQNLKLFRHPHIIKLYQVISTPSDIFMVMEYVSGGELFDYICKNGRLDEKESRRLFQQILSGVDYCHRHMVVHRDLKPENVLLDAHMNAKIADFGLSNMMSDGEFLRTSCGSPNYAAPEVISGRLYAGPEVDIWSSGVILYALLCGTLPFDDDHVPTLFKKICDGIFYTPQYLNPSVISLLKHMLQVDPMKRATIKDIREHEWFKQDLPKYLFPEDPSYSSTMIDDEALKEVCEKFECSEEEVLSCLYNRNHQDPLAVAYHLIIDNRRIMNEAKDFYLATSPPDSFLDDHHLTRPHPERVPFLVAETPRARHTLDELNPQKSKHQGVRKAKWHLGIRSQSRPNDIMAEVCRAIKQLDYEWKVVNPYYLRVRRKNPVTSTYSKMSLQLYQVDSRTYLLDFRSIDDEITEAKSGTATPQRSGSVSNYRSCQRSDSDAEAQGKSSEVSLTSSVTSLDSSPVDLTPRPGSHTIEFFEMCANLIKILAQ
Chain of EPHA8 (human) (P29322 whole entry, looked up): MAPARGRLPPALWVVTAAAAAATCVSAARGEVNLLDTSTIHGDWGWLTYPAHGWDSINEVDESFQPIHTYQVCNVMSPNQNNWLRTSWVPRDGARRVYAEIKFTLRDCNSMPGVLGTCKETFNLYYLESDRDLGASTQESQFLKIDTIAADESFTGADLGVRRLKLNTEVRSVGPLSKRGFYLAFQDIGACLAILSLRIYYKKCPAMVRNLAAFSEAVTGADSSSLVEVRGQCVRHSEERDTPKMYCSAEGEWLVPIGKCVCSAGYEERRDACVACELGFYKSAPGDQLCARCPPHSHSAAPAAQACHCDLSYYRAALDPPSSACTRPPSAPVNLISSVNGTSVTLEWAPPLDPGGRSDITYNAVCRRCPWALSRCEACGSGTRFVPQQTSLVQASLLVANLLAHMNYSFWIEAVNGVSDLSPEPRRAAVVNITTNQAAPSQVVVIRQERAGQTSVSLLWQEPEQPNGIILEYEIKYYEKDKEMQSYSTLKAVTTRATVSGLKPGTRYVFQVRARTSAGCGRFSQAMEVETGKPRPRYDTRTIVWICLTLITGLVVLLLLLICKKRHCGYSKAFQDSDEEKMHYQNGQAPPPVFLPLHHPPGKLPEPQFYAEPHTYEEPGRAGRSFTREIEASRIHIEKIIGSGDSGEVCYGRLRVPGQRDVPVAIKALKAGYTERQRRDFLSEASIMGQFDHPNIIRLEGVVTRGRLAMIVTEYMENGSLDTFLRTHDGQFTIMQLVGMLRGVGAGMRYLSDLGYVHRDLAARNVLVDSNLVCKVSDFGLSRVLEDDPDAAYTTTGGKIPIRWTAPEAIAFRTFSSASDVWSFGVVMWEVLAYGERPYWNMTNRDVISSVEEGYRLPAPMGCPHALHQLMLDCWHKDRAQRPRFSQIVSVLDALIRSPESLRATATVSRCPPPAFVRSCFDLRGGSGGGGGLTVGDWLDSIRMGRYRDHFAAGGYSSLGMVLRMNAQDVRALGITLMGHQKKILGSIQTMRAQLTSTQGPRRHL
Chain of PAK1 (human) (Q13153 whole entry, looked up): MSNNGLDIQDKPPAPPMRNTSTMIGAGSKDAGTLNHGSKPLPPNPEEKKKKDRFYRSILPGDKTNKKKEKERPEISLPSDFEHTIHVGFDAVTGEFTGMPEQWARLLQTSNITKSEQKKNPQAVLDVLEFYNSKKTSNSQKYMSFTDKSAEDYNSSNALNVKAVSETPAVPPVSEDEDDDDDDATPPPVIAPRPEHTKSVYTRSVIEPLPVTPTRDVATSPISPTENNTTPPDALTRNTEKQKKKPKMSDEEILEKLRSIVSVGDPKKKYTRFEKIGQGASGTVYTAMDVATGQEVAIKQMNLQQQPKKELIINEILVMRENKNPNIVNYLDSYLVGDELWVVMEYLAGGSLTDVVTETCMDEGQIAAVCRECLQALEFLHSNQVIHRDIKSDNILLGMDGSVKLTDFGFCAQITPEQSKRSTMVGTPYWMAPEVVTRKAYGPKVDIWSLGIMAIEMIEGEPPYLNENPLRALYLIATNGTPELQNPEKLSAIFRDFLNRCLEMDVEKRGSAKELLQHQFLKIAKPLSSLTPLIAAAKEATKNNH
Chain of EPHB1 (human) (P54762 whole entry, looked up): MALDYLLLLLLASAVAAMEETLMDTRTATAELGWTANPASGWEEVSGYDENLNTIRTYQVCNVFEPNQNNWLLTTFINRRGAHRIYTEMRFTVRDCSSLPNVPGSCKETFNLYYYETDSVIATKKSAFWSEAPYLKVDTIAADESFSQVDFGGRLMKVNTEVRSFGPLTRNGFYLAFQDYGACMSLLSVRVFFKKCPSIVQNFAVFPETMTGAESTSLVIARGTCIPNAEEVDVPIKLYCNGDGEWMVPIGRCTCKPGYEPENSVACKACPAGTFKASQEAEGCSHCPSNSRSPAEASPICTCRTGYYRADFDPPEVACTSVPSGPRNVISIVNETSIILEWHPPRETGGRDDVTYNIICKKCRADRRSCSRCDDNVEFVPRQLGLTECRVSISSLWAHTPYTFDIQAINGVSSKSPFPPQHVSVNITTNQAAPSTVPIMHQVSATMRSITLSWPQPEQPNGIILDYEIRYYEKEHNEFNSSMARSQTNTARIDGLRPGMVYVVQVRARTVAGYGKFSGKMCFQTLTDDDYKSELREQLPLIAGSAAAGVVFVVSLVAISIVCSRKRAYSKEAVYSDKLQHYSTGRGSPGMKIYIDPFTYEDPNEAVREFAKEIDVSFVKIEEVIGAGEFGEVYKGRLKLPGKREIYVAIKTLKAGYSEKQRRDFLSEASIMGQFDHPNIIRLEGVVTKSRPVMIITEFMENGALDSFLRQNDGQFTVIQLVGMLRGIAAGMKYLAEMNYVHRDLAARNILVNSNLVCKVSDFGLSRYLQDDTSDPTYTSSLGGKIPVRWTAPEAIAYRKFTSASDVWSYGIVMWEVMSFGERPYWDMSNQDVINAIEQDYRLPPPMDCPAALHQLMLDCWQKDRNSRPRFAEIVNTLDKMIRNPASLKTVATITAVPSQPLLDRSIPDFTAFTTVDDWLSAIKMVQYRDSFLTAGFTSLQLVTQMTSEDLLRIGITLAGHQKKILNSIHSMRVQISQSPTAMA
Chain of AKT3 (human) (Q9Y243 whole entry, looked up): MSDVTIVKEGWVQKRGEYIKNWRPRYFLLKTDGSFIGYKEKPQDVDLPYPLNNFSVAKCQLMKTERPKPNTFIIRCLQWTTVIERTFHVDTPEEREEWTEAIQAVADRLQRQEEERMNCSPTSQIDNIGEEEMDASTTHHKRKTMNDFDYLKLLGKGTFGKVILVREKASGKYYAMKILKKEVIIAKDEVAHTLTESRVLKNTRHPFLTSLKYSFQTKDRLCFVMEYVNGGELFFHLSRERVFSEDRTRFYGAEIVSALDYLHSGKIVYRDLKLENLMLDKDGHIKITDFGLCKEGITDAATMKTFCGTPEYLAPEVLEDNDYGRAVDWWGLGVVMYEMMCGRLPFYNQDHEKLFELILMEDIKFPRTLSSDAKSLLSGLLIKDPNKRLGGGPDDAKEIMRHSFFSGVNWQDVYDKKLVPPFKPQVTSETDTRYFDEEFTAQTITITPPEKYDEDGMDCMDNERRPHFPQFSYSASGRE
Chain of RPS6KA6 KD1 KD2 (human) (Q9UK32 whole entry, looked up): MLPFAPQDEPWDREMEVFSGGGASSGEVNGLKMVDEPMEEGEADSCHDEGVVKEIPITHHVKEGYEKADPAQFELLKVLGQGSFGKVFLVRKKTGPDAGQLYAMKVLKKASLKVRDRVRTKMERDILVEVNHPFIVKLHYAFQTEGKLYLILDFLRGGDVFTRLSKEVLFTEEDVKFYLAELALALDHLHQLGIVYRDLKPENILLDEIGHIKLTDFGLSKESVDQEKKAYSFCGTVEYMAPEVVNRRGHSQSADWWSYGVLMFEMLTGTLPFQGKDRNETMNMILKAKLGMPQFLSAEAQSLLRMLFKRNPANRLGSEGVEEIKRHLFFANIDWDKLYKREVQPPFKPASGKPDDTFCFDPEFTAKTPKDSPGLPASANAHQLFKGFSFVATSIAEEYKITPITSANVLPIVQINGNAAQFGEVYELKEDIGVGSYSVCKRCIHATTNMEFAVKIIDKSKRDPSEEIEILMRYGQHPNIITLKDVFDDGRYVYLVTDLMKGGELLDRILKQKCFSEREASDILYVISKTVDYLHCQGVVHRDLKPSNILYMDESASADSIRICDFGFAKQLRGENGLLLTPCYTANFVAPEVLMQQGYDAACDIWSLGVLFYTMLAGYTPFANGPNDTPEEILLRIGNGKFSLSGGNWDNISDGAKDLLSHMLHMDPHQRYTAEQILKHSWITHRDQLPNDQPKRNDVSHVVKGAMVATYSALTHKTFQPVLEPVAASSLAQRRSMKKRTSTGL

Which results are given for `CNC(=O)c1ccccc1Sc1ccc2c(/C=C/c3ccccn3)n[nH]c2c1`?
inhibition ([1]; compound 0.001 µM): -6.5%; inhibition ([1]; compound 0.02 µM): -5.1%; inhibition ([2]; compound 0.001 µM): -2.7%; inhibition ([2]; compound 0.02 µM): -2.2%; inhibition ([3]; compound 0.001 µM): -1.5%; inhibition ([3]; compound 0.02 µM): 1.6%; inhibition ([4]; compound 0.001 µM): -7.2%; inhibition ([4]; compound 0.02 µM): -7.8%; inhibition ([5]; compound 0.001 µM): -3.8%; inhibition ([5]; compound 0.02 µM): -2.3%; inhibition ([6]; compound 0.001 µM): -9.1%; inhibition ([6]; compound 0.02 µM): -6.5%; inhibition ([7]; compound 0.001 µM): 2.4%; inhibition ([7]; compound 0.02 µM): 0.2%; inhibition ([8]; compound 0.001 µM): 2.5%; inhibition ([8]; compound 0.02 µM): 1.4%; inhibition ([9]; compound 0.001 µM): -4.5%; inhibition ([9]; compound 0.02 µM): -4.9%; inhibition ([10]; compound 0.001 µM): -2.5%; inhibition ([10]; compound 0.02 µM): 7%; inhibition ([11]; compound 0.001 µM): 13.9%; inhibition ([11]; compound 0.02 µM): 0.8%; inhibition ([12]; compound 0.001 µM): 0.8%; inhibition ([12]; compound 0.02 µM): 1.8%; inhibition ([13]; compound 0.001 µM): 1%; inhibition ([13]; compound 0.02 µM): 3.9%; inhibition ([14]; compound 0.001 µM): 2.3%; inhibition ([14]; compound 0.02 µM): -0.8%; inhibition ([15]; compound 0.001 µM): -3.2%; inhibition ([16]; compound 0.001 µM): -1.5%; inhibition ([16]; compound 0.02 µM): -1.5%; inhibition ([17]; compound 0.001 µM): -7.1%; inhibition ([17]; compound 0.02 µM): -5.9%; inhibition ([18]; compound 0.001 µM): -5.4%; inhibition ([18]; compound 0.02 µM): -5.5%; inhibition ([19]; compound 0.001 µM): -6%; inhibition ([19]; compound 0.02 µM): -4.8%; inhibition ([20]; compound 0.001 µM): -4.4%; inhibition ([20]; compound 0.02 µM): -4.8%; inhibition ([21]; compound 0.001 µM): -9.5%; inhibition ([21]; compound 0.02 µM): -9.5%; inhibition ([22]; compound 0.001 µM): 4.4%; inhibition ([22]; compound 0.02 µM): -4.2%; inhibition ([23]; compound 0.001 µM): -2.2%; inhibition ([23]; compound 0.02 µM): -4.4%; inhibition ([24]; compound 0.001 µM): 1.4%; inhibition ([24]; compound 0.02 µM): 1.1%; inhibition ([25]; compound 0.001 µM): -3.7%; inhibition ([25]; compound 0.02 µM): -4.6%; inhibition ([26]; compound 0.001 µM): -5%; inhibition ([26]; compound 0.02 µM): -4.7%; inhibition ([27]; compound 0.001 µM): 13.2%; inhibition ([27]; compound 0.02 µM): 22.8%; inhibition ([28]; compound 0.001 µM): 15.9%; inhibition ([28]; compound 0.02 µM): 0.7%; inhibition ([29]; compound 0.001 µM): -7%; inhibition ([29]; compound 0.02 µM): -0.1%; inhibition ([30]; compound 0.02 µM): -7.8%; inhibition ([31]; compound 0.001 µM): 7.1%; inhibition ([31]; compound 0.02 µM): 10.1%; inhibition ([32]; compound 0.001 µM): -7.7%; inhibition ([32]; compound 0.02 µM): -5.9%

Which results are given for `CCN(CC)CCNC(=O)c1c(C)[nH]c(/C=C2\C(=O)Nc3ccc(F)cc32)c1C`?
inhibition ([1]; compound 0.2 µM): 11.9%; inhibition ([1]; compound 4.0 µM): 71.8%; inhibition ([33]; compound 0.2 µM): 78.8%; inhibition ([33]; compound 4.0 µM): 98.8%; inhibition ([2]; compound 0.2 µM): 73.6%; inhibition ([2]; compound 4.0 µM): 99%; inhibition ([3]; compound 0.2 µM): 6%; inhibition ([3]; compound 4.0 µM): 45.2%; inhibition ([4]; compound 0.2 µM): -4.4%; inhibition ([4]; compound 4.0 µM): 28.9%; inhibition ([5]; compound 0.2 µM): 51.4%; inhibition ([5]; compound 4.0 µM): 95.7%; inhibition ([6]; compound 0.2 µM): 34.5%; inhibition ([6]; compound 4.0 µM): 89%; inhibition ([7]; compound 0.2 µM): 3.3%; inhibition ([7]; compound 4.0 µM): 21.8%; inhibition ([8]; compound 0.2 µM): 82.2%; inhibition ([8]; compound 4.0 µM): 102%; inhibition ([9]; compound 0.2 µM): -0.6%; inhibition ([9]; compound 4.0 µM): 24%; inhibition ([10]; compound 0.2 µM): 20.1%; inhibition ([10]; compound 4.0 µM): 77.7%; inhibition ([11]; compound 4.0 µM): 20.6%; inhibition ([12]; compound 0.2 µM): 6.4%; inhibition ([12]; compound 4.0 µM): 48.8%; inhibition ([13]; compound 0.2 µM): 96%; inhibition ([13]; compound 4.0 µM): 104%; inhibition ([14]; compound 0.2 µM): 4%; inhibition ([14]; compound 4.0 µM): 5.5%; inhibition ([15]; compound 0.2 µM): 68.8%; inhibition ([15]; compound 4.0 µM): 96.8%; inhibition ([16]; compound 0.2 µM): -2.8%; inhibition ([16]; compound 4.0 µM): 1.8%; inhibition ([18]; compound 0.2 µM): 2.3%; inhibition ([18]; compound 4.0 µM): 44.8%; inhibition ([19]; compound 0.2 µM): 17.6%; inhibition ([19]; compound 4.0 µM): 82.3%; inhibition ([20]; compound 0.2 µM): -0.8%; inhibition ([20]; compound 4.0 µM): 35.7%; inhibition ([21]; compound 0.2 µM): -5.7%; inhibition ([21]; compound 4.0 µM): 28.8%; inhibition ([22]; compound 0.2 µM): 4.4%; inhibition ([22]; compound 4.0 µM): 11%; inhibition ([23]; compound 0.2 µM): 2.2%; inhibition ([23]; compound 4.0 µM): 29.1%; inhibition ([24]; compound 0.2 µM): 83.7%; inhibition ([24]; compound 4.0 µM): 101%; inhibition ([25]; compound 0.2 µM): -4.2%; inhibition ([25]; compound 4.0 µM): -6.2%; inhibition ([34]; compound 0.2 µM): 99.2%; inhibition ([34]; compound 4.0 µM): 103%; inhibition ([26]; compound 0.2 µM): -0.2%; inhibition ([26]; compound 4.0 µM): 27.7%; inhibition ([27]; compound 0.2 µM): 67.9%; inhibition ([27]; compound 4.0 µM): 98.9%; inhibition ([28]; compound 0.2 µM): 0.1%; inhibition ([28]; compound 4.0 µM): 28.7%; inhibition ([29]; compound 0.2 µM): 80.7%; inhibition ([29]; compound 4.0 µM): 97.8%; inhibition ([30]; compound 0.2 µM): 38%; inhibition ([30]; compound 4.0 µM): 94.6%; inhibition ([31]; compound 0.2 µM): 62.6%; inhibition ([31]; compound 4.0 µM): 98.7%; inhibition ([32]; compound 0.2 µM): 3.1%; inhibition ([32]; compound 4.0 µM): 42.9%
